Results reported in patent US11390603B2, “Crystalline forms of a biphenyl compound” (THERAVANCE BIOPHARMA R&D IP, LLC, priority 2005, dated 2022).
pKi: −log10 of the molar value.

Tests used:
[1] = biological target: T1, M3 muscarinic receptor subtype (Homo sapiens, UniProt P20309); assay: Radioligand binding assay ([3H]-NMS displacement); details: CHO cell membranes, [3H]-NMS at 1 nM; tested in this or a similar assay
T1 construct: expressed in transfected cells
Procedure: CHO cell lines stably expressing cloned human hM1, hM2, hM3 and hM4 muscarinic receptor subtypes, respectively, were grown to near confluency in medium consisting of HAM's F-12 supplemented with 10% FBS and 250 μg/mL Geneticin. The cells were grown in a 5% CO2, 37° C. incubator and lifted with 2 mM EDTA in dPBS. Cells were collected by 5 minute centrifugation at 650×g, and cell pellets were either stored frozen at −80° C. or membranes were prepared immediately. For membrane preparation, cell pellets were resuspended in lysis buffer and homogenized with a Polytron PT-2100 tissue disrupter (Kinematica AG; 20 seconds×2 bursts). Crude membranes were centrifuged at 40,000×g for 15 minutes at 4° C. […] The protein concentration of the membrane suspension was determined by the method described in Lowry, O. et al., Journal of Biochemistry 193:265 (1951). […]
Radioligand binding assays were performed in 96-well microtiter plates in a total assay volume of 100 μL. […] Filter plates were rinsed three times with wash buffer (10 mM HEPES) to remove unbound radioactivity. […] The plates were then counted in a PerkinElmer Topcount liquid scintillation counter (PerkinElmer Inc., Wellesley, Mass.). Binding data were analyzed by nonlinear regression analysis with the GraphPad Prism Software package (GraphPad Software, Inc., San Diego, Calif.) using the one-site competition model. […]

guinea pigs = assay: Duration of bronchoprotection in guinea pig model of acetylcholine-induced bronchoconstriction; assay type: in vivo; details: 1.5 hours post-dose, inhalation
Procedure: Groups of six male guinea pigs (Duncan-Hartley (HsdPoc:DH) Harlan, Madison, Wis.) weighing between 250 and 350 g are individually identified by cage cards. Throughout the study animals are allowed access to food and water ad libitum.
Test compounds are administered via inhalation over 10 minutes in a whole-body exposure dosing chamber (R&S Molds, San Carlos, Calif.). The dosing chambers are arranged so that an aerosol was simultaneously delivered to 6 individual chambers from a central manifold. Guinea pigs are exposed to an aerosol of a test compound or vehicle (WFI). […] This is measured gravimetrically by comparing pre-and post-nebulization weights of the filled nebulizer.
The bronchoprotective effects of test compounds administered via inhalation are evaluated using whole body plethysmography at 1.5, 24, 48 and 72 hours post-dose.
Forty-five minutes prior to the start of the pulmonary evaluation, each guinea pig is anesthetized with an intramuscular injection of ketamine (43.75 mg/kg), xylazine (3.50 mg/kg) and acepromazine (1.05 mg/kg). […] The depth of anesthesia is monitored and adjusted if the animal responds to pinching of its paw or if the respiration rate is greater than 100 breaths/minute. […]
Starting this program initiates the experimental protocol and data collection. […] By integrating this signal over time, a measurement of […] is calculated for each breath. […]

T1 sequence (P20309 whole entry): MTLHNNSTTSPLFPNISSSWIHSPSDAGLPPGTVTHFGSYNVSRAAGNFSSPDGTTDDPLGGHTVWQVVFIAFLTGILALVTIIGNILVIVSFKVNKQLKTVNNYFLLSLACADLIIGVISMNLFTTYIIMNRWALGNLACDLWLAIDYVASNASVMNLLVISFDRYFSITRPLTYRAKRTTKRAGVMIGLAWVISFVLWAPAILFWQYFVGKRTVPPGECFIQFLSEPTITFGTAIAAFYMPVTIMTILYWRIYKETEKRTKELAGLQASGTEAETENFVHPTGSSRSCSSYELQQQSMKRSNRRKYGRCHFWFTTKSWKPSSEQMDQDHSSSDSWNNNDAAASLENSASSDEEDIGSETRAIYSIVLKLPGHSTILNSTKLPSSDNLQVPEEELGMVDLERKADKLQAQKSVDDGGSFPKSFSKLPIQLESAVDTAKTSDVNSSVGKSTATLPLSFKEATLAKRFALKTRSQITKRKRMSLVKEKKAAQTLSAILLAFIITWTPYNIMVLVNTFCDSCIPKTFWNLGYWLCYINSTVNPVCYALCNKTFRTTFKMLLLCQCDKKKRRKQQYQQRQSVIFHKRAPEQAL

## CN(CCN1CCC(OC(=O)Nc2ccccc2-c2ccccc2)CC1)C(=O)c1ccc(CN2CCC(C(N)=O)CC2)cc1 [compound of formula I, biphenyl-2-ylcarbamic acid 1-(2-{[4-(4-carbamoylpiperidin-1-ylmethyl)benzoyl]methylamino}ethyl)piperidin-4-yl ester]
[1]
  pKi: > 8.30
Guinea pigs
  PD2(50) for ACh-induced bronchoconstriction: less than 200 μg/mL
